Assay results published in US20090030064A1, “Sugar-coated preparation” (Takeda Pharmaceutical Company Limited, priority 2005, published 2009).

Experiment: Reference Example 1: bulk powder left in air, residual ratio
Assay type: physicochemical
Conditions: 40° C. and 75% RH in the air, 1 month
Protocol: A bulk powder of Compound A and sodium ascorbate were respectively left to stand for 1 month at 40° C. and 75% RH in the air, and then residual ratios thereof were measured. As a result, the residual ratio of Compound A was 89.7% (W/W), and the residual ratio of sodium ascorbate was 99.0% (W/W). Quantification of Compound A was carried out by a HPLC method under the following conditions. Solvent: acetonitrile Measurement wavelength: 287 nm Column: CHIRALCEL OJ-R 4.6 mm×150 mm (manufactured by Daicel Chemical Industries, Ltd.) Mobile phase: mixed solution of acetonitrile/10 mM aqueous ammonium acetate solution (16:9) Oven temperature: around 25° C. Quantification of sodium ascorbate was carried out by an iodine titration technique (solvent: metaphosphoric acid solution (1→50), indicator: starch test solution).

SMILES	residual ratio
O=C1O[C@H]([C@@H](O)CO)C([O-])=C1O.[Na+] [sodium ascorbate]	99.0 % (W/W)
COc1cc2c(cc1OC)CN(c1c(C)c(C)c3c(c1C)[C@@H](c1ccc(C)cc1)C(C)(C)O3)C2 [Compound A, (R)-5,6-dimethoxy-2-[2,2,4,6,7-pentamethyl-3-(4-methylphenyl)-2,3-dihydro-1-benzofuran-5-yl]isoindoline]	89.7 % (W/W)
